Consider four molecules from patent US20230339991A1, “HYPOXIA-ACTIVATED DNA ALKYLATING AGENT AND MEDICAL USE THEREOF” (ASCENTAWITS PHARMACEUTICALS, LTD., priority 2020, published 2023).

One series relates to hepatoma cell HepG2. Kind of series: Hypoxia-dependent proliferation inhibition, HepG2. It counts as cell-based, human. The conditions noted are these: for IC50: Homo sapiens; for HCR (hypoxic cytotoxicity ratio): IC50 ratio normoxia/N2. The text has this:
(§1) To determine the effect of the drug A according to the present invention on cancer cell proliferation, the antiproliferative activity of these compounds against the cancer cell was detected in a porous CTG-based assay. The effects of test compounds on cell proliferation under normoxic (21% O2) and hypoxic (<0.01% O2) conditions were compared. H460 cells were routinely cultured to 80%-90% of cell saturation, and when the number reached the requirement, resuspended with the corresponding culture medium, counted and prepared into cell suspension with appropriate density. The cell suspension was added to two types of 24-well plates, 495 μL per well with 1×10^4/well of cell density. 24-well plates inserted with glass insert were used for hypoxic tests, and ordinary plastic 24-well plates were used for normoxic tests. 5 μL of each compound was added to the hypoxic and normoxic reaction systems, respectively. After reacting for 3 hours in the hypoxic workstation or the normoxic incubator, the compounds were washed away using the culture medium and the system was placed in an incubator for another 72 hours. The final concentrations of each compound tested under normoxic conditions were as follows: TH-302 was 1000, 200, 40, 8, 1.6, 0.32 μM; test compound A (compound 32) was 1000, 200, 40, 8, 1.6, 0.32 μM; compound 26 was 500, 50, 5, 0.5, 0.05 μM. The final concentrations of each compound tested under hypoxic conditions were as follows: TH-302 was 10, 2, 0.4, 0.08, 0.016, 0.0032 μM; test compound A (compound 32) was 50, 5, 0.5, 0.05, 0.005, 0.0005 μM; compound 26 was 500, 50, 5, 0.5, 0.05 μM. After 72 hours of cell culture, 300 μL of culture medium was removed from each well of 24-well plate. 50 μL of CTG was added into each well. The plate was mixed and shaked for 2 min, and kept in dark for 15 minutes at room temperature. 100 μL per well of culture medium was transferred from 24-well plate to 96-well white plate, and the chemiluminescence signal value was read with Multifunctional enzyme marker with a reading time of 1000 ms. The IC50 was calculated using GraphPad Prism 5 software. […] The compound TH-302 (a hypoxic-activated prodrug entering phase III clinical studies, cas No. 918633-87-1, see the literature Sun J D, Liu Q, Wang J, et al. Selective tumor hypoxia targeting by hypoxia-activated prodrug TH-302 inhibits tumor growth in preclinical models of cancer. [J]. Clinical Cancer Research An Official Journal of the American Association for Cancer Research, 2012, 18(3): 758-70, structural formula is
Similarly, the above-mentioned three compounds were tested for the proliferation inhibition effect on hepatoma cell HepG2, and the results are shown in the following table 5.

The next series relates to H460 cancer cells. Description: Hypoxia-dependent proliferation inhibition, H460, CTG. It counts as cell-based, human. The conditions noted are these: for IC50: Homo sapiens, 3 h exposure.
Text: as §1, with “formula is […]” for “formula is”

Series [1] is described as follows: Liver microsome stability, rat. Particulars: for Remaining percentage after 30 minutes: Rat. How it is done: (§2) 1) Two individual experiments were performed.
(§3) 1a) With NADPH: 10 μL of 20 mg/mL liver microsomes and 40 μL of 10 mM NADPH were added to the culture solution. The final concentrations of microsomes and NADPH were 0.5 mg/mL and 1 mM, respectively.
(§4) 1b) Without NADPH: 10 μL of 20 mg/mL liver microsomes and 40 μL of ultrapure H2O were added to the culture solution. The final concentration of microsomes was 0.5 mg/mL.
(§5) 3) 50 μL of aliquots were taken from the reaction solution at 0 min and 30 min. The reaction was terminated by adding 4 volumes of cold acetonitrile and four internal standards (IS, 100 nM alprazolam, 200 nM caffeine, 200 nM labetalol and 2 μM ketoprofen). The samples were centrifuged at 3, 220×g for 40 min. The aliquots of 100 μL of supernatant were mixed with 100 μL of ultrapure H2O and then used for LC-MS/MS analysis. All experiments were performed in duplicate.
In general terms: Liver microsomes are a subcellular fraction often used to study metabolism.

A short description of series [2]: Liver microsome stability, mouse. The conditions noted are these: for Remaining percentage after 30 minutes: Mouse. The procedure:
as §2, §3, §4, §5

A short description of series [3]: Liver microsome stability, dog. Particulars: for Remaining percentage after 30 minutes: Dog. The procedure:
as §2, §3, §4, §5

Series [4] is described as follows: Liver microsome stability, human. The conditions noted are these: for Remaining percentage after 30 minutes: Human. The procedure:
as §2, §3, §4, §5

Where [5] appears, read: N2 (hypoxic), read-out: IC50 N2.
Setting [6] is: normoxia, read-out: IC50 Normoxia.
The mark [7] stands for this setting: NCI-H460, hypoxic (<0.01% O2), read-out: N2 IC50.
[8] abbreviates: NCI-H460, normoxic (21% O2), read-out: Normoxic IC50.

Read-outs that look alike come from different tables or passages of the source.

Consider `Cn1c(COP(=O)(NCCBr)NCCBr)cnc1[N+](=O)[O-]` [TH-302, Evofosfamide], for which the IC50 (commonly the concentration that gives 50% inhibition) in the series with hepatoma cell HepG2 (setting [5]) worked out at 12.4 µM; in the series on hepatoma cell HepG2 (setting [6]) it was 918 µM; with H460 cancer cells (setting [7]), 0.02 µM; with H460 cancer cells (setting [8]) it was 13.6 µM. Further, in the series with hepatoma cell HepG2, the “HCR (hypoxic cytotoxicity ratio)” value is recorded as 72.82. In addition, the “IC50 ratio: Normoxia/N2” value in the series on H460 cancer cells was 680.
Consider `CC(OP(=O)(N1CC1)N1CC1)c1ccc([N+](=O)[O-])c2ccccc12` (stereo not drawn) [Compound D], for which the “Remaining percentage after 30 minutes” value turned out to be 6.81% in series [1] (with NADPH); 103.00% in series [1] (without NADPH); 32.37% in series [2] (with NADPH); 96.37% in series [2] (without NADPH); 9.97% in series [3] (with NADPH); 99.10% in series [3] (without NADPH). Besides, the “Remaining percentage after 30 minutes” value was 74.28% in series [4] (with NADPH, 2 μM) and 107.67% in series [4] (without NADPH). Also, the IC50 with hepatoma cell HepG2 (setting [5]) was 1.5 µM; with hepatoma cell HepG2 (setting [6]) it was 16.7 µM; in the series on H460 cancer cells (setting [7]), 0.04 µM; in the series with H460 cancer cells (setting [8]) it was 0.8 µM. Moreover, the “HCR (hypoxic cytotoxicity ratio)” value in the series on hepatoma cell HepG2 is reported as 11.13. Besides, in the series on H460 cancer cells, the “IC50 ratio: Normoxia/N2” value was 20.
With `O=[N+]([O-])c1ccc(C(OP(=O)(N2CC2)N2CC2)C(F)(F)F)c2ccccc12` (racemic) [Compound A], the “stability in liver microsomes” value in series [1] (rat) is recorded as “not stable”; in series [2] (mouse), “relatively stable”; in series [3] (canine), “not stable”; in series [4] (human), “relatively stable”. Besides, the IC50 in the series on hepatoma cell HepG2 (setting [5]) is 4.78 µM; in the series on hepatoma cell HepG2 (setting [6]), 20.6 µM; in the series on H460 cancer cells (setting [7]) it was 0.04 µM. In addition, the “HCR (hypoxic cytotoxicity ratio)” value in the series with hepatoma cell HepG2 worked out at 4.31. In the series with H460 cancer cells, the “IC50 ratio: Normoxia/N2” value came out at 12.5.
Take `O=[N+]([O-])c1ccc([C@@H](OP(=O)(N2CC2)N2CC2)C(F)(F)F)c2ccccc12` (single isomer, unassigned) [Compound C]: the “Remaining percentage after 30 minutes” value is given as 71.05% in series [1] (with NADPH); 111.15% in series [1] (without NADPH); 102.89% in series [2] (with NADPH); 103.07% in series [2] (without NADPH); 31.16% in series [3] (with NADPH); 101.62% in series [3] (without NADPH). Moreover, in series [4] (without NADPH), the “Remaining percentage after 30 minutes” value is given as 82.15%.
